The text below walks through data of ChEMBL document CHEMBL1201862, “PubChem BioAssay data set” (2004).

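Cultured in 96-well plates, cells were exposed to test compound for 48 hours across five concentrations. GI50 = concentration required for 50% inhibition of growth.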 The source made the active and inactive calls. Rule as the data show it: active = GI50 up to about 1.1 µM and inactive = higher.

Among the test systems are HL-60; HCT-116; NCI-H522; SK-OV-3; RPMI-8226; HCC 2998; OVCAR-8; A549; SW-620; SNB-75; HOP-92; OVCAR-5; Malme-3M; EKVX; LOX IMVI; SNB-19; 786-0.
What all share (test): NCI anticancer screen, dose series, 48 h

`COC1/C=C\C=C(/C)C(=O)NC2=CC(=O)C=C(C2=O)C(OC)C(C)CC(OC)C(OC)C(C)/C=C(/C)C1OC(N)=O` (stereo not given): the GI50 in the assay on HL-60 was 0.132 µM (active); in the assay on HCT-116, 1.34 µM (inactive); in the assay on NCI-H522 it was 0.231 µM (active); in the assay on SK-OV-3, 14.6 µM (inactive); with RPMI-8226, 0.807 µM (active); with HCC 2998, 2.66 µM (inactive). The GI50 is 1.65 µM (inactive) with OVCAR-8; 16.7 µM (inactive) with A549; 0.146 µM (active) with SW-620; 17.3 µM (inactive) in the assay on SNB-75; 2.04 µM (inactive) in the assay with HOP-92; 15.3 µM (inactive) in the assay with OVCAR-5. Moreover, the GI50 was 0.189 µM (active) in the assay with Malme-3M, 1.97 µM (inactive) with EKVX, 3.19 µM (inactive) with LOX IMVI and 14.1 µM (inactive) with SNB-19.
In the case of `COc1ccc(C(=O)OCC2OC(n3cnc4c(=S)nc[nH]c43)C(OC(=O)c3ccc(OC)cc3)C2OC(=O)c2ccc(OC)cc2)cc1` (stereo not given), the GI50 was 26.2 µM (inactive) with HL-60; 10.5 µM (inactive) in the assay on HCT-116; 7 µM (inactive) with NCI-H522; 15.3 µM (inactive) with 786-0; 4.36 µM (inactive) in the assay on RPMI-8226; 9.35 µM (inactive) with HCC 2998. Also, the GI50 with OVCAR-8 is 28.5 µM (inactive); in the assay on A549, > 100 µM (inactive); in the assay on SW-620, 46.9 µM (inactive); with SNB-75, 7.52 µM (inactive); in the assay on HOP-92, 6.05 µM (inactive); in the assay on OVCAR-5, 23.1 µM (inactive). Moreover, the GI50 in the assay with Malme-3M is 32.2 µM (inactive); in the assay with SNB-19 it was > 100 µM (inactive).
As to `O=C(O)CSc1ccc2nc3ccccc3c(O)c2c1`, the GI50 in the assay with HL-60, in the assay with HCT-116, in the assay with 786-0, in the assay with SK-OV-3, in the assay on RPMI-8226 and with HCC 2998 was > 100 µM (inactive) each time. Moreover, the GI50 with OVCAR-8, in the assay with A549, in the assay on SW-620, with HOP-92, in the assay with OVCAR-5 and in the assay on Malme-3M was > 100 µM (inactive) throughout. Further, the GI50 in the assay on LOX IMVI and in the assay with SNB-19 was > 100 µM (inactive) each time.
Take `COc1ccc(-c2ccc(CC(=O)O)cc2)cc1OC`: the GI50 in the assay with HL-60, in the assay on HCT-116, in the assay on NCI-H522, with 786-0, with SK-OV-3 and with RPMI-8226 was > 100 µM (inactive) each time. Further, the GI50 with OVCAR-8 was > 100 µM (inactive); with A549, > 100 µM (inactive); in the assay with SW-620, > 100 µM (inactive); in the assay on SNB-75, 97.5 µM (inactive); with HOP-92 it was > 100 µM (inactive); in the assay on OVCAR-5, > 100 µM (inactive). Also, the GI50 with Malme-3M, in the assay on EKVX and with SNB-19 was > 100 µM (inactive) each time.
Take `CCOC(=O)C(=O)Nc1cc(Cl)ccc1Cl`: the GI50 with HL-60, in the assay on HCT-116, with NCI-H522, in the assay on 786-0, with SK-OV-3 and in the assay with RPMI-8226 was > 100 µM (inactive) each time. For the same molecule, the GI50 was > 100 µM (inactive) with HCC 2998; > 100 µM (inactive) in the assay on OVCAR-8; > 100 µM (inactive) in the assay on A549; > 100 µM (inactive) in the assay with SW-620; 34.2 µM (inactive) in the assay on SNB-75; > 100 µM (inactive) with HOP-92. For the same molecule, the GI50 with OVCAR-5, in the assay on Malme-3M, with EKVX and in the assay on SNB-19 was > 100 µM (inactive) each time.
Consider `COc1cc2c(cc1OC)C(=O)Cc1ccc3c(c1CNCC2)OCO3`, for which the GI50 with HCT-116, in the assay on NCI-H522, in the assay with 786-0, in the assay on SK-OV-3, with RPMI-8226 and with HCC 2998 was > 100 µM (inactive) throughout. In addition, the GI50 in the assay with OVCAR-8, in the assay with A549, with SW-620, with SNB-75, in the assay with OVCAR-5 and in the assay with Malme-3M was > 100 µM (inactive) each time. The GI50 with EKVX and in the assay with SNB-19 was > 100 µM (inactive) in each case.
`C=CCCC(=O)CC(=O)OCc1ccccc1`: the GI50 with HL-60, with HCT-116, with 786-0, with SK-OV-3, with RPMI-8226 and in the assay with HCC 2998 was > 100 µM (inactive) in each case. In addition, the GI50 with OVCAR-8 is > 100 µM (inactive); in the assay on A549, > 100 µM (inactive); in the assay on SW-620, > 100 µM (inactive); in the assay with SNB-75, 99.3 µM (inactive); with HOP-92, > 100 µM (inactive); in the assay on OVCAR-5 it was > 100 µM (inactive). Besides, the GI50 in the assay with Malme-3M, with EKVX, with LOX IMVI and with SNB-19 was > 100 µM (inactive) in each case.
Regarding `CN(C)c1ccc(/C=C/C(=O)C(C)(C)C)cc1Br`, the GI50 is 17.7 µM (inactive) with HCT-116; 16.1 µM (inactive) in the assay with NCI-H522; 24 µM (inactive) in the assay with 786-0; 52.1 µM (inactive) in the assay on SK-OV-3; 19.5 µM (inactive) in the assay with RPMI-8226; 27.4 µM (inactive) with HCC 2998. Besides, the GI50 in the assay on OVCAR-8 is 21.8 µM (inactive); with A549, 39.9 µM (inactive); in the assay with SW-620 it was 27.7 µM (inactive); in the assay on SNB-75 it was 20.1 µM (inactive); in the assay on OVCAR-5 it was 49 µM (inactive); in the assay with Malme-3M it was 28.4 µM (inactive). Also, the GI50 in the assay on EKVX was 44.4 µM (inactive); with SNB-19, 31.6 µM (inactive).
Take `N#CC1=C(N)n2c(s/c(=C\c3ccc(Cl)cc3)c2=O)=C(c2nc3ccccc3[nH]2)C1c1ccc(Cl)cc1` (stereo not given): the GI50 was 2.04 µM (inactive) in the assay on HL-60; 1.82 µM (inactive) in the assay with HCT-116; 1.96 µM (inactive) in the assay on NCI-H522; 2.23 µM (inactive) in the assay with 786-0; 2.23 µM (inactive) in the assay with RPMI-8226; 0.411 µM (active) in the assay with HCC 2998. The GI50 was 1.81 µM (inactive) in the assay on OVCAR-8; 3.32 µM (inactive) with A549; 1.37 µM (inactive) with SW-620; 2.77 µM (inactive) in the assay with SNB-75; 0.203 µM (active) in the assay on HOP-92; 2.02 µM (inactive) in the assay on OVCAR-5. Moreover, the GI50 is 2.25 µM (inactive) in the assay on Malme-3M, 1.88 µM (inactive) with EKVX, 1.65 µM (inactive) in the assay on LOX IMVI and 3.28 µM (inactive) in the assay on SNB-19.
